# Assay results reported in ChEMBL document CHEMBL6182869, “Tetracationic tetraaryltetranaphtho[2,3]porphyrins for photodynamic inactivation against Staphylococcus aureus biofilm” (Eur J Med Chem, 2025).
# Active and inactive are the calls of the source. The calls are words filed in the database; no cut-off is given here.
# Legend:
# [1] = Photophysical property of the compound assessed as fluorescence quantum yield by UV-vis spectrophotometric analysis; format: physicochemical
# [2] = Photophysical property of the compound assessed as singlet oxygen quantum yield by UV-vis spectrophotometric analysis; format: physicochemical
# [3] = Induction of singlet oxygen quantum yield under 418 nm light irradiation by DPBF based assay; format: functional
# Staphylococcus aureus [4] = test: Antibacterial activity against Staphylococcus aureus assessed as bacterial growth inhibition preincubated with compound for 15 mins followed by light irradiated with 730 nm, 40 J/cm2 and measured after 24 hrs by broth microdilution method; format: functional; conditions: light or radiation study, 24.25 h, time 1455 min
# Staphylococcus aureus [5] = test: Antibacterial activity against Staphylococcus aureus assessed as bacterial growth inhibition measured after 24 hrs by broth microdilution method; format: functional
# Escherichia coli [6] = test: Antibacterial activity against Escherichia coli assessed as bacterial growth inhibition measured after 24 hrs by broth microdilution method; format: functional
# Escherichia coli [7] = test: Antibacterial activity against Escherichia coli assessed as bacterial growth inhibition preincubated with compound for 15 mins followed by light irradiated with 730 nm, 40 J/cm2 and measured after 24 hrs by broth microdilution method; format: functional; conditions: light or radiation study, 24.25 h, time 1455 min
# Candida albicans [8] = test: Antifungal activity against Candida albicans assessed as fungal growth inhibition measured after 24 hrs by broth microdilution method; format: functional
# Candida albicans [9] = test: Antifungal activity against Candida albicans assessed as fungal growth inhibition preincubated with compound for 15 mins followed by light irradiated with 730 nm, 40 J/cm2 and measured after 24 hrs by broth microdilution method; format: functional; conditions: light or radiation study, 24.25 h, time 1455 min
# Staphylococcus aureus [10] = test: Antibacterial activity against Staphylococcus aureus preincubated with compound for 15 mins followed by light irradiation with 730 nm, 40 J/cm2 by cell counting analysis; format: functional, organism-based; conditions: dose 0.5-8 µM
# Staphylococcus aureus [11] = test: Antibacterial activity against Staphylococcus aureus assessed as reduction in viable bacteria at 0.5 uM preincubated with compound for 15 mins followed by light irradiation with 730 nm, 40 J/cm2 by cell counting analysis relative to control; format: functional; conditions: 0.25 h
# Staphylococcus aureus [12] = test: Antibacterial activity against Staphylococcus aureus assessed as log reduction in bacterial viability at 8 uM preincubated with compound for 15 mins followed by light irradiation with 730 nm, 40 J/cm2 by cell counting analysis relative to control; format: functional; conditions: 0.25 h
# Staphylococcus aureus [13] = test: Antibacterial activity against Staphylococcus aureus assessed as eradication rate at 8 uM preincubated with compound for 15 mins followed by light irradiation with 730 nm, 40 J/cm2 relative to control; format: functional; conditions: 0.25 h
# Staphylococcus aureus [14] = test: Bactericidal activity against Staphylococcus aureus at 0.5 to 8 uM; format: functional, organism-based; conditions: dose 0.5-8 µM
# Staphylococcus aureus [15] = test: Antibiofilm activity against Staphylococcus aureus assessed as disruption of mature biofilm structure at 16 uM preincubated for 15 mins followed by light irradiation with 730 nm, 40 J/cm2 by crystal violet staining based analysis; format: functional, organism-based
# Staphylococcus aureus [16] = test: Antibiofilm activity against Staphylococcus aureus assessed as disruption of mature biofilm rate at 16 uM preincubated for 15 mins followed by light irradiation with 730 nm, 40 J/cm2 by crystal violet staining based analysis relative to control; format: functional; conditions: 0.25 h
# Staphylococcus aureus [17] = test: Antibiofilm activity against Staphylococcus aureus assessed as reduction in green fluorescence intensity at 16 uM preincubated for 15 mins followed by light irradiation with 730 nm, 40 J/cm2 by SYTO 9/PI staining based CLSM analysis; format: functional, organism-based
# Staphylococcus aureus [18] = test: Antibiofilm activity against Staphylococcus aureus assessed as increase in red fluorescence intensity at 16 uM preincubated for 15 mins followed by light irradiation with 730 nm, 40 J/cm2 by SYTO 9/PI staining based CLSM analysis; format: functional, organism-based
# [19] = Dark cytotoxicity against human HaCaT cells assessed as cell viability at 16 uM preincubated for 15 mins by MTT assay; format: toxicity, cell-based; conditions: read-out: Activity
# HaCaT [20] = test: Phototoxicity in human HaCaT cells assessed as cell viability at 16 uM preincubated for 15 mins by MTT assay; format: functional, cell-based
# HaCaT [21] = test: Phototoxicity in human HaCaT cells assessed as cell viability at 16 uM preincubated for 15 mins followed by light irradiation with 730 nm, 40 J/cm2 by MTT assay; format: functional, cell-based
# Staphylococcus aureus [22] = test: Antibiofilm activity against Staphylococcus aureus at 16 uM preincubated for 15 mins followed by light irradiation with 730 nm, 40 J/cm2 by SYTO 9/PI staining based CLSM analysis; format: functional, organism-based
# Staphylococcus aureus [23] = test: Antibiofilm activity against Staphylococcus aureus assessed as viable bacteria at 16 uM preincubated for 15 mins followed by light irradiation with 730 nm, 40 J/cm2 by SYTO 9/PI staining based CLSM analysis; format: functional, organism-based
structure (smiles),measurement,setting,value
C[N+](C)(C)CCCOc1ccc(-c2c3nc(c(-c4ccc(OCCC[N+](C)(C)C)cc4)c4[nH]c(c(-c5ccc(OCCC[N+](C)(C)C)cc5)c5nc(c(-c6ccc(OCCC[N+](C)(C)C)cc6)c6[nH]c2c2cc7ccccc7cc62)-c2cc6ccccc6cc2-5)c2cc5ccccc5cc42)-c2cc4ccccc4cc2-3)cc1.[Br-].[Br-].[Br-].[Br-],Activity,[1],0.07
same,Activity,[2],0.37
same,Activity,[3],Active
same,MIC,Staphylococcus aureus [4],8 µM
same,MIC,Staphylococcus aureus [5],32 µM
same,MIC,Escherichia coli [6],> 64 µM
same,MIC,Escherichia coli [7],> 64 µM
same,MIC,Candida albicans [8],64 µM
same,MIC,Candida albicans [9],64 µM
same,Activity,Staphylococcus aureus [10],Dose-dependent-effect
same,Activity,Staphylococcus aureus [11],>75%
same,log(activity),Staphylococcus aureus [12],3
same,Activity,Staphylococcus aureus [13],>99.9%
same,Activity,Staphylococcus aureus [14],Active
same,Activity,Staphylococcus aureus [15],Active
same,Activity,Staphylococcus aureus [16],72.6%
same,Activity,Staphylococcus aureus [17],Active
same,Activity,Staphylococcus aureus [18],Active
same,"viability at 0.25 h, 16 µM",[19],> 80%
same,Activity,HaCaT [20],inactive
same,Activity,HaCaT [21],inactive
CC[N+](C)(CC)CCCOc1ccc(-c2c3nc(c(-c4ccc(OCCC[N+](C)(CC)CC)cc4)c4[nH]c(c(-c5ccc(OCCC[N+](C)(CC)CC)cc5)c5nc(c(-c6ccc(OCCC[N+](C)(CC)CC)cc6)c6[nH]c2c2cc7ccccc7cc62)-c2cc6ccccc6cc2-5)c2cc5ccccc5cc42)-c2cc4ccccc4cc2-3)cc1.[Br-].[Br-].[Br-].[Br-],Activity,[1],0.06
same,Activity,[2],0.51
same,Activity,[3],Active
same,MIC,Staphylococcus aureus [4],8 µM
same,MIC,Staphylococcus aureus [5],16 µM
same,MIC,Escherichia coli [6],> 64 µM
same,MIC,Escherichia coli [7],> 64 µM
same,MIC,Candida albicans [8],64 µM
same,MIC,Candida albicans [9],64 µM
same,Activity,Staphylococcus aureus [10],Dose-dependent-effect
same,Activity,Staphylococcus aureus [11],>75%
same,log(activity),Staphylococcus aureus [12],3
same,Activity,Staphylococcus aureus [13],>99.9%
same,Activity,Staphylococcus aureus [14],Active
same,Activity,Staphylococcus aureus [15],Active
same,Activity,Staphylococcus aureus [16],80.1%
same,Activity,Staphylococcus aureus [17],Active
same,Activity,Staphylococcus aureus [18],Active
same,Activity,Staphylococcus aureus [22],Active
same,Activity,Staphylococcus aureus [23],Active
same,"viability at 0.25 h, 16 µM",[19],> 80%
same,Activity,HaCaT [20],inactive
same,Activity,HaCaT [21],inactive
[Br-].[Br-].[Br-].[Br-].c1cc[n+](CCCOc2ccc(-c3c4nc(c(-c5ccc(OCCC[n+]6ccccc6)cc5)c5[nH]c(c(-c6ccc(OCCC[n+]7ccccc7)cc6)c6nc(c(-c7ccc(OCCC[n+]8ccccc8)cc7)c7[nH]c3c3cc8ccccc8cc73)-c3cc7ccccc7cc3-6)c3cc6ccccc6cc53)-c3cc5ccccc5cc3-4)cc2)cc1,Activity,[1],0.07
same,Activity,[2],0.45
same,Activity,[3],Active
same,MIC,Staphylococcus aureus [4],8 µM
same,MIC,Staphylococcus aureus [5],32 µM
same,MIC,Escherichia coli [6],> 64 µM
same,MIC,Escherichia coli [7],> 64 µM
same,MIC,Candida albicans [8],64 µM
same,MIC,Candida albicans [9],32 µM
same,Activity,Staphylococcus aureus [10],Dose-dependent-effect
same,Activity,Staphylococcus aureus [11],>75%
same,log(activity),Staphylococcus aureus [12],3
same,Activity,Staphylococcus aureus [13],>99.9%
same,Activity,Staphylococcus aureus [14],Active
same,Activity,Staphylococcus aureus [15],Active
same,Activity,Staphylococcus aureus [16],77.5%
same,Activity,Staphylococcus aureus [17],Active
same,Activity,Staphylococcus aureus [18],Active
same,"viability at 0.25 h, 16 µM",[19],> 80%
same,Activity,HaCaT [20],inactive
same,Activity,HaCaT [21],inactive
